Reference: patent publication US20120270864A1, “2-QUINOLINONE AND 2-QUINOXALINONE-DERIVATIVES AND THEIR USE AS ANTIBACTERIAL AGENTS” (ASTRAZENECA AB, priority 2006, published 2012)

System: Staphylococcus aureus (Sau) 516 cells
Test: Bacterial Susceptibility Testing Methods 2 (microbroth dilution, growth inhibition)
Format: cell-based
Excerpt: Compounds may be tested for antimicrobial activity by susceptibility testing using microbroth dilution methods recommended by CSLI. Compounds may be dissolved in dimethylsulfoxide and tested in 10 doubling dilutions in the susceptibility assays such that the final dimethylsulfoxide concentration in the assay is 2% (v/v). The Staphylococcus aureus (Sau) 516 cells used in the assay may be grown overnight on appropriate agar media and then suspended in the NCCLS-recommended liquid susceptibility-testing media. […] Plates may be incubated under appropriate conditions of atmosphere and temperature and for times according to NCCLS standard methods prior to being read. As used in Table 1 below, the term “inhibition” refers to the percentage of Staphylococcus aureus 516 cell growth that is suppressed (compared to an untreated sample) by the compound of the indicated example number. When tested in the above in-vitro assay, the compounds and salts of the example numbers listed below were tested at the indicated concentrations, providing the indicated inhibitions. In most instances, the highest concentrations at which the compounds were tested was 8 μg/mL. In some instances, however, compounds were tested at concentrations higher than 8 μg/mL, typically when the concentration was first measured in μM and was subsequently converted to μg/mL. In those cases in which compounds were tested at more than one concentration higher than 8 μg/mL, the concentration closest to 8 μg/mL is provided below.

[1] = Staphylococcus aureus, Tested Concentration 8 μg/mL, Staphylococcus aureus 516 cell growth suppressed compared to untreated sample
[2] = Tested Concentration 8 μg/mL, Staphylococcus aureus 516 cell growth suppressed compared to untreated sample
[3] = Staphylococcus aureus, Tested Concentration 12 μg/mL, Staphylococcus aureus 516 cell growth

For `N#Cc1ccc2ccc(=O)n(CCN3CC[C@@H](NCc4ccc5c(n4)NC(=O)CS5)[C@@H](O)C3)c2c1` [Example 6, 1-[2-((3S,4R)-3-Hydroxy-4-{[(3-oxo-3,4-dihydro-2H-pyrido[3,2-b][1,4]thiazin-6-yl)methyl]amino}piperidin-1-yl)ethyl]-2-oxo-1,2-dihydro quino line-7-carbonitrile], the inhibition at 8 µg/mL [1] was 99%.

Molecule `N#Cc1ccc2ccc(=O)n(CCN3CC[C@H](NCc4ccc5c(n4)NC(=O)CS5)[C@H](O)C3)c2c1` [Example 3, 1-[2-((3R,4S)-3-Hydroxy-4-{[(3-oxo-3,4-dihydro-2H-pyrido[3,2-b][1,4]thiazin-6-yl)methyl]amino}piperidin-1-yl)ethyl]-2-oxo-1,2-dihydroquinoline-7-carbonitrile] has an inhibition at 8 µg/mL [1] of 99%.

`CO[C@@H]1CN(CCn2c(=O)ccc3ccc(C#N)cc32)CC[C@H]1NCc1cc2c(cn1)OCCO2` [Example 41, 1-(2-{(3R,4R)-4-[(2,3-dihydro[1-yl]dioxino[2,3-c]pyridin-7-ylmethyl)amino]-3-methoxypiperidin-1-yl}ethyl)-2-oxo-1,2-dihydro quinoline-7-carbonitrile] was tested, and the “Inhibition (%)” value [2] was 100%.

In the case of `COc1ccc2ncc(=O)n(CCN3CCC(NCc4ccc5c(n4)NC(=O)CO5)C(F)C3)c2c1` (single isomer, unassigned) [Example 40, 6-[({3-Fluoro-1-[2-(7-methoxy-2-oxoquinoxalin-1(2H)-yl)ethyl]piperidin-4-yl}amino)methyl]-2H-pyrido[3,2-b][1,4]oxazin-3 (4H)-one], the “Inhibition (%)” value (Tested Concentration 12 μg/mL, Staphylococcus aureus 516 cell growth) is reported as 100%.

`CO[C@H]1CN(CCn2c(=O)ccc3ccc(C#N)cc32)CC[C@@H]1NCc1ccc2c(n1)NC(=O)CO2` [Example 44, 1-[2-((3S,4S)-3-Methoxy-4-{[(3-oxo-3,4-dihydro-2H-pyrido[3,2-b][1,4]oxazin-6-yl)methyl]amino}piperidin-1-yl)ethyl]-2-oxo-1,2-dihydroquinoline-7-carbonitrile] gave an inhibition at 8 µg/mL [1] of 100%.

With `COc1ccc2ncc(=O)n(CCN3CC[C@@H](NCc4cc5c(cn4)OCCO5)[C@@H](O)C3)c2c1` [Example 10, 1-(2-{(3S,4R)-4-[(2,3-Dihydro[1,4]dioxino[2,3-c]pyridin-7-ylmethyl)amino]-3-hydroxypiperidin-1-yl}ethyl)-7-methoxyquinoxalin-2(1H)-one] the inhibition at 8 µg/mL [1] was 100%.

For `N#Cc1ccc2ccc(=O)n(CCN3CCC(NCc4ccc5c(n4)NC(=O)CO5)C(F)C3)c2c1` (single isomer, unassigned) [Example 38, 1-[2-(3-Fluoro-4-{[(3-oxo-3,4-dihydro-2H-pyrido[3,2-b][1,4]oxazin-6-yl)methyl]amino}piperidin-1-yl)ethyl]-2-oxo-1,2-dihydro quino line-7-carbonitrile], the inhibition at 12 µg/mL [3] was 100%.

With `COc1ccc2ncc(=O)n(CCN3CC[C@H](NCc4ccc5c(n4)NC(=O)CO5)[C@H](O)C3)c2c1` [Example 8, 6-[({(3R,4S)-3-Hydroxy-1-[2-(7-methoxy-2-oxoquinoxalin-1(2H)-yl)ethyl]piperidin-4-yl}amino)methyl]-2H-pyrido[3,2-b][1,4]oxazin-3(4H)-one] the inhibition at 8 µg/mL [1] was 99%.

`N#Cc1ccc2ccc(=O)n(CCN3CC[C@H](NCc4ccc5c(n4)NC(=O)CO5)[C@H](F)C3)c2c1` [Example 52, 1-[2-((3R,4S)-3-fluoro-4-{[(3-oxo-3,4-dihydro-2H-pyrido[3,2-b][1,4]oxazin-6-yl)methyl]amino}piperidin-1-yl)ethyl]-2-oxo-1,2-dihydroquinoline-7-carbonitrile] was tested, and the inhibition at 13 µg/mL (Staphylococcus aureus, Tested Concentration 13 μg/mL, Staphylococcus aureus 516 cell growth) was 100%.

`CO[C@H]1CN(CCn2c(=O)cc(C)c3ccc(C#N)cc32)CC[C@H]1NCc1ccc2c(n1)NC(=O)CO2` [Example 51, 1-[2-((3S,4R)-3-Methoxy-4-{[(3-oxo-3,4-dihydro-2H-pyrido[3,2-b][1,4]oxazin-6-yl)methyl]amino}piperidin-1-yl)ethyl]-4-methyl-2-oxo-1,2-dihydro quino line-7-carbonitrile] gave an inhibition at 9 µg/mL (Staphylococcus aureus, Tested Concentration 9 μg/mL, Staphylococcus aureus 516 cell growth) of 100%.

With `N#Cc1ccc2ccc(=O)n(CCN3CC[C@@H](NCc4cc5c(cn4)OCCO5)[C@@H](F)C3)c2c1` [Example 12, 1-(2-{(3S,4R)-4-[(2,3-Dihydro[1,4]dioxino[2,3-c]pyridin-7-ylmethyl)amino]-3-fluoropiperidin-1-yl}ethyl)-2-oxo-1,2-dihydroquinoline-7-carbonitrile] the inhibition at 8 µg/mL [1] was 100%.

Work on `CO[C@@H]1CN(CCn2c(=O)ccc3ccc(C#N)cc32)CC[C@@H]1NCc1cc2c(cn1)OCCO2` [Example 22, 1-(2-{(3R,4S)-4-[(2,3-Dihydro[1,4]dioxino[2,3-c]pyridin-7-ylmethyl)amino]-3-methoxypiperidin-1-yl}ethyl)-2-oxo-1,2-dihydroquinoline-7-carbonitrile] yielded an inhibition at 8 µg/mL [1] of 100%.

`N#Cc1ccc2ccc(=O)n(CCN3CC[C@@H](NCc4cc5c(cn4)OCCO5)[C@@H](O)C3)c2c1` [Example 4, 1-(2-{(3S,4R)-4-[(2,3-Dihydro[1,4]dioxino[2,3-c]pyridin-7-ylmethyl)amino]-3-hydroxypiperidin-1-yl}ethyl)-2-oxo-1,2-dihydroquinoline-7-carbonitrile] was tested, and the inhibition at 8 µg/mL [1] was 100%.

Molecule `COc1ccc2ncc(=O)n(CCN3CC[C@H](NCc4ccc5c(n4)NC(=O)CO5)[C@H](OC)C3)c2c1` [Example 17, 6-[({(3R,4S)-3-Methoxy-1-[2-(7-methoxy-2-oxoquinoxalin-1(2H)-yl)ethyl]piperidin-4-yl}amino)methyl]-2H-pyrido[3,2-b][1,4]oxazin-3(4H)-one] has an inhibition at 8 µg/mL [1] of 99%.

`COc1ccc2ncc(=O)n(CCN3CCC(NCc4ccc5c(n4)NC(=O)CO5)C(O)C3)c2c1` (single isomer, unassigned) [Example 30, 6-[({3-Hydroxy-1-[2-(7-methoxy-2-oxoquinoxalin-1(2H)-yl)ethyl]piperidin-4-yl}amino)methyl]-2H-pyrido[3,2-b][1,4]oxazin-3(4H)-one] gave an inhibition at 8 µg/mL [1] of 98%.

`N#Cc1ccc2ccc(=O)n(CCN3CC[C@@H](NCc4ccc5c(n4)NC(=O)CO5)[C@@H](F)C3)c2c1` [Example 50, 1-[2-((3S,4R)-3-Fluoro-4-{[(3-oxo-3,4-dihydro-2H-pyrido[3,2-b][1,4]oxazin-6-yl)methyl]amino}piperidin-1-yl)ethyl]-2-oxo-1,2-dihydro quino line-7-carbonitrile] gave an inhibition at 14 µg/mL (Staphylococcus aureus, Tested Concentration 14 μg/mL, Staphylococcus aureus 516 cell growth) of 100%.

For `COc1ccc2ncc(=O)n(CCN3CCC(NCc4cc5c(cn4)OCCO5)C(F)C3)c2c1` (single isomer, unassigned) [Example 39, 1-(2-{4-[(2,3-Dihydro[1,4]dioxino[2,3-c]pyridin-7-ylmethyl)amino]-3-fluoropiperidin-1-yl}ethyl)-7-methoxyquinoxalin-2(1H)-one], the “Inhibition (%)” value (Tested Concentration 14 μg/mL, Staphylococcus aureus 516 cell growth) was 100%.

`N#Cc1ccc2ccc(=O)n(CCN3CCC(NCc4cc5c(cn4)OCCO5)C(F)C3)c2c1` (single isomer, unassigned) [Example 37, 1-(2-{4-[(2,3-Dihydro[1,4]dioxino[2,3-c]pyridin-7-ylmethyl)amino]-3-fluoropiperidin-1-yl}ethyl)-2-oxo-1,2-dihydroquinoline-7-carbonitrile] was tested, and the “Inhibition (%)” value (Tested Concentration 13 μg/mL, Staphylococcus aureus 516 cell growth) was 100%.

Work on `CO[C@H]1CN(CCn2c(=O)ccc3ccc(C#N)cc32)CC[C@@H]1NCc1cc2c(cn1)OCCO2` [Example 43, 1-(2-{(3S,4S)-4-[(2,3-Dihydro[1,4]dioxino[2,3-c]pyridin-7-ylmethyl)amino]-3-methoxypiperidin-1-yl}ethyl)-2-oxo-1,2-dihydroquinoline-7-carbonitrile] yielded an inhibition at 4 µg/mL (Staphylococcus aureus, Tested Concentration 4 μg/mL, Staphylococcus aureus 516 cell growth) of 100% and an inhibition at 8 µg/mL [1] of 12%.

`COc1ccc2ncc(=O)n(CCN3CCC(NCc4ccc5c(n4)NC(=O)CO5)C(F)C3)c2c1` (single isomer, unassigned) [Example 36, 6-[({3-Fluoro-1-[2-(7-methoxy-2-oxoquinoxalin-1(2H)-yl)ethyl]piperidin-4-yl}amino)methyl]-2H-pyrido[3,2-b][1,4]oxazin-3(4H)-one] gave an inhibition at 12 µg/mL [3] of 90%.

For `COc1ccc2ncc(=O)n(CCN3CCC(NCc4cc5c(cn4)OCCO5)C(O)C3)c2c1` (single isomer, unassigned) [Example 31, 1-(2-{4-[(2,3-dihydro[1,4]dioxino[2,3-c]pyridin-7-ylmethyl)amino]-3-hydroxypiperidin-1-yl}ethyl)-7-methoxyquinoxalin-2(1H)-one], the “Inhibition (%)” value [2] was 87%.

`CO[C@H]1CN(CCn2c(=O)ccc3ccc(C#N)cc32)CC[C@H]1NCc1ccc2c(n1)NC(=O)CS2` [Example 21, 1-[2-((3S,4R)-3-M ethoxy-4-{[(3-oxo-3,4-dihydro-2H-pyrido[3,2-b][1,4]thiazin-6-yl)methyl]amino}piperidin-1-yl)ethyl]-2-oxo-1,2-dihydro quino line-7-carbonitrile] gave an inhibition at 8 µg/mL [1] of 100%.

With `COc1ccc2ncc(=O)n(CCN3CC[C@@H](NCc4ccc5c(n4)NC(=O)CO5)[C@@H](OC)C3)c2c1` [Example 15, 6-[({(3S,4R)-3-Methoxy-1-[2-(7-methoxy-2-oxoquinoxalin-1(2H)-yl)ethyl]piperidin-4-yl}amino)methyl]-2H-pyrido[3,2-b][1,4]oxazin-3 (4H)-one] the inhibition at 8 µg/mL [1] was 97%.
